From patent publication US12577250B2, “1,2,4-triazolone derivative as DHODH inhibitor, and preparation method therefor and use thereof” (WIGEN BIOMEDICINE TECHNOLOGY (SHANGHAI) CO., LTD., priority 2021, dated 2026) come the findings set out here.

Series [1] can be described thus: Pharmacokinetic evaluation in mice. It is filed as in vivo, male ICR mice. On the procedure: The compounds were administered by intravenous injection at a dose of 2 mg/kg and oral gavage at a dose of 10 mg/kg (0.5% CMC-Na suspension). 15 male ICR mice were selected, and each mouse was subjected to blood collection at 3 discrete time points, with 3 mice per time point. The time points of sampling were as follows: before administration, and 5 min, 15 min, 30 min, 1 h, 3 h, 5 h, 8 h, 12 h and 24 h after administration. 80 μL of blood was collected from the orbits or hearts of the mice at each time point after administration. All whole blood samples were collected in tubes containing EDTAK2 and centrifuged (1500-1600 rmp/min) at 4° C. for 10 min to isolate plasma, which was then stored in a refrigerator at −90° C. to −60° C. for sample analysis. The compound concentration in the plasma was determined by liquid chromatography-tandem mass spectrometry, and the corresponding pharmacokinetic parameters were obtained according to a plasma concentration-time curve.

Series [2] deals with THP-1 cells. The series can be described thus: Anti-proliferative activity on THP-1 cells (CellTiter-Lumi, 72 h). It is filed as cell-based. As to conditions: read-out: Cell anti-proliferative activity IC50 THP-1. Here is the method: THP-1 cells were seeded into a 384-well plate (Fisher 142762) at 3000 cells per well. The next day, serially diluted compounds were added, and 72 h after the addition, CellTiter-Lumi (Beyotime C0068XL) was added to measure the ATP content in the cells. The growth of the cells was evaluated, and IC50 of the compounds against cell growth was calculated.

Series [3] has as its system MV-4-11 cells. Description: Anti-proliferative activity on MV-4-11 cells (CellTiter-Lumi, 72 h). It is filed as cell-based. To be noted: read-out: Cell anti-proliferative activity IC50 MV-4-11. Here is the method: MV-4-11 cells were seeded into a 384-well plate (Fisher 142762) at 3000 cells per well. The next day, serially diluted compounds were added, and 72 h after the addition, CellTiter-Lumi (Beyotime C0068XL) was added to measure the ATP content in the cells. The growth of the cells was evaluated, and IC50 of the compounds against cell growth was calculated.

Series [4] concerns the target DHODH (Homo sapiens, UniProt Q02127). The series can be described thus: Assay against enzyme activity of DHODH (DCIP absorption at 600 nm). Format: biochemical. Here is the method: The enzyme activity of DHODH was assayed through a cascade reaction to determine its ability to catalyze the oxidation of a natural substrate DHO (dihydroorotic acid) to orotic acid while reducing coenzyme Q. The enzyme activity of DHODH was indirectly detected by assaying the ability of the coenzyme Q to reduce a chromogenic substrate DCIP. After the compound and an enzyme reaction mixture were incubated for 5 min, a reaction substrate DHO was added to start the reaction, and the enzyme activity was assayed by assaying the absorption at 600 nm to detect the DCIP exhaustion in a timed manner.

Setting [5] is: male, ICR, mouse, plasma, iv, 2 mg/kg.
Where [6] appears, read: male, ICR, mouse, plasma, po, 10 mg/kg (0.5% CMC-Na suspension).
Setting [7] is: Homo sapiens, MV4-11, 72 h, class symbols.

Read-outs that look alike come from different tables or passages of the source. Some results are limits rather than exact numbers.

DHODH, sequence (Q02127 whole entry): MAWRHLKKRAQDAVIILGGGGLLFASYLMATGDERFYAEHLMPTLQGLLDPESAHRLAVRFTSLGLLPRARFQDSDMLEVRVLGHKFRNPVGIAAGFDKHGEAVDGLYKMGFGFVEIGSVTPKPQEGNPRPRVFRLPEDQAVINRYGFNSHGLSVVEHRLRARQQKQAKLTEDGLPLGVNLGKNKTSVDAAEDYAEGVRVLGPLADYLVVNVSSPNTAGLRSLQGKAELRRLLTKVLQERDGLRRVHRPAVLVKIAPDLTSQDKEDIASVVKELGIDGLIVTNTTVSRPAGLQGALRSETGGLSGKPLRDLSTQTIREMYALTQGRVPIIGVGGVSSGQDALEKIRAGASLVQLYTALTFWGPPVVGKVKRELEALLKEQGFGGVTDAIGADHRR

In series [1] (setting [5]), `C[C@H](Oc1cc(-n2nc3n(c2=O)CCC2(CC2)C3)c(F)cc1C(=O)Nc1c(F)cccc1Cl)C(F)(F)F` [Compound 1, (S)—N-(2-chloro-6-fluorophenyl)-5-fluoro-4-(3′-oxo-5′,6′-dihydro-3′H-spiro[cyclopropane-1,7-[1,2,4]triazolo[4,3-α]pyridin]-2′(8′H)-yl)-2-((1,1,1-trifluoropropan-2-yl)oxy)benzamide] gave an exposure AUC(0-t) of 2530 ng·h/mL, a clearance of 13.2 mL/min/kg and a half-life of 1.79 h. In series [1] (male, ICR, mouse, plasma, iv, 2 mg/kg, read-out: Vss), the Vd turned out to be 1.66 L/kg. Besides, in series [1] (setting [6]), the AUC(0-t) is 7780 ng·h/mL, the Cmax was 2240 ng/mL, the time to peak (Tmax) stood at 0.25 h and the half-life is 2.07 h. Besides, in series [1] (po), the “oral bioavailability (in words)” value is listed as “good oral bioavailability”. In series [1] (po 10 mg/kg vs iv 2 mg/kg), this molecule returned an F of 61.7%. In addition, the IC50 in series [2] (Homo sapiens) stood at 27.6 nM. Moreover, the IC50 in series [3] (Homo sapiens, MV4-11, 72 h) came out at 1.27 nM. For the same molecule, the IC50 in series [4] was < 50 nM.
For BAY-2402234 [reference compound], the IC50 in series [2] turned out to be 35.6 nM; in series [3], 3.82 nM.
Regarding `C[C@H](Oc1nc(-n2nc3n(c2=O)CCC2(CC2)C3)c(F)cc1C(=O)Nc1c(F)cccc1Cl)C(F)(F)F` [Compound 54, (S)—N-(2-chloro-6-fluorophenyl)-5-fluoro-4-(3′-oxo-5′,6′-dihydro-3′H-spiro[cyclopropane-1,7-[1,2,4]triazolo[4,3-α]pyridin]-2′(8′H)-yl)-2-((1,1,1-trifluoropropan-2-yl)oxy)benzamide], the IC50 was 24.5 nM in series [2] (Homo sapiens); 0.51 nM in series [3] (Homo sapiens, MV4-11, 72 h); < 50 nM in series [4].
For `COc1ncc(C)c(NC(=O)c2cc(F)c(-n3nc4n(c3=O)CCC3(CC3)C4)nc2O[C@@H](C)C2CCCCC2)c1Cl` [Compound 58], the 50% inhibitory concentration (IC50) was 0.75 nM in series [3] (Homo sapiens, MV4-11, 72 h) and < 50 nM in series [4].
For the molecule `C[C@H](Oc1cc(-n2nc3n(c2=O)CCC2(CC2)C3)c(F)cc1C(=O)Nc1c(Cl)ccc(F)c1F)C(F)(F)F` [Compound 31], the results for the concentration for half-maximal inhibition (IC50) in series [3] (setting [7]) and in series [4] were ≤ 50 nM and < 50 nM, respectively.
`C[C@H](Oc1cc(-n2nc3n(c2=O)CCC2(CC2)C3)c(F)cc1C(=O)Nc1c(F)cc(F)cc1Cl)C(F)(F)F` [Compound 27]: the IC50 was ≤ 50 nM in series [3] (setting [7]) and < 50 nM in series [4].
For `CCC[C@H](C)Oc1nc(-n2nc3n(c2=O)CCC2(CC2)C3)c(F)cc1C(=O)Nc1c(F)cccc1Cl` [Compound 56], the IC50 is 1.97 nM in series [3] (Homo sapiens, MV4-11, 72 h) and < 50 nM in series [4].
With `Cc1cccc(Cl)c1NC(=O)c1cc(F)c(-n2nc3n(c2=O)CCC2(CC2)C3)cc1O[C@@H](C)C(F)(F)F` [Compound 12], the IC50 is 1.45 nM in series [3] (Homo sapiens, MV4-11, 72 h) and < 50 nM in series [4].
Regarding `C[C@H](Oc1cc(-n2nc3n(c2=O)CCC2(CC2)C3)c(F)cc1C(=O)Nc1ccc(N)cc1C(F)(F)F)C(F)(F)F` [Compound 26], the values for the IC50 in series [3] (setting [7]) and in series [4] were ≤ 50 nM and < 50 nM, respectively.
Take `Cc1cccc(C(F)(F)F)c1NC(=O)c1cc(F)c(-n2nc3n(c2=O)CCC2(CC2)C3)cc1O[C@@H](C)C(F)(F)F` [Compound 16]: the IC50 in series [3] (setting [7]) is ≤ 50 nM; in series [4], < 50 nM.
In the case of `C[C@H](Oc1cc(-n2nc3n(c2=O)CCCC2(CC2)C3)c(F)cc1C(=O)Nc1c(F)cccc1Cl)C(F)(F)F` [Compound 51], the IC50 was 47.6 nM in series [2] (Homo sapiens); 5.45 nM in series [3] (Homo sapiens, MV4-11, 72 h); < 50 nM in series [4].
In the case of `C[C@H](Oc1cc(-n2nc3n(c2=O)CC2(CC2)C3)c(F)cc1C(=O)Nc1c(F)cccc1Cl)C1CCCCC1` [Compound 49], the IC50 is ≤ 50 nM in series [3] (setting [7]) and < 50 nM in series [4].
With `Cc1c(F)cccc1NC(=O)c1cc(F)c(-n2nc3n(c2=O)CCC2(CC2)C3)cc1O[C@@H](C)C(F)(F)F` [Compound 23], the IC50 in series [3] (setting [7]) is ≤ 50 nM; in series [4], < 50 nM.
Consider `COc1ncc(C)c(NC(=O)c2cc(F)c(-n3nc4n(c3=O)CCC3(CC3)C4)nc2O[C@@H](C)C(F)(F)F)c1Cl` [Compound 57], for which the IC50 was 0.32 nM in series [3] (Homo sapiens, MV4-11, 72 h) and < 50 nM in series [4].
As to `Cc1c(Cl)cccc1NC(=O)c1cc(F)c(-n2nc3n(c2=O)CCC2(CC2)C3)cc1O[C@@H](C)C(F)(F)F` [Compound 24], the IC50 in series [3] (setting [7]) was ≤ 50 nM; in series [4], < 50 nM.
In the case of `COc1cc(F)c(NC(=O)c2cc(F)c(-n3nc4n(c3=O)CCC3(CC3)C4)cc2O[C@@H](C)C(F)(F)F)c(F)c1` [Compound 30], the IC50 is ≤ 50 nM in series [3] (setting [7]) and < 50 nM in series [4].
Turning to `Cc1ccc(Cl)c(NC(=O)c2cc(F)c(-n3nc4n(c3=O)CCC3(CC3)C4)cc2O[C@@H](C)C(F)(F)F)c1C` [Compound 32], the half-inhibitory concentration (IC50) in series [3] (setting [7]) is ≤ 50 nM; in series [4], < 50 nM.
With `C[C@H](Oc1cc(-n2nc3n(c2=O)CCC2(CC2)C3)c(F)cc1C(=O)Nc1c(F)cccc1Cl)C1CCCC1` [Compound 46], the IC50 is ≤ 50 nM in series [3] (setting [7]) and < 50 nM in series [4].
Take `C[C@H](Oc1cc(-n2nc3n(c2=O)CCC2(CC2)C3)c(F)cc1C(=O)Nc1cccc(Cl)c1)C(F)(F)F` [Compound 8]: the values for the half-inhibitory concentration (IC50) in series [3] (setting [7]) and in series [4] were ≤ 50 nM and < 50 nM, respectively.
On to `Cc1cnccc1NC(=O)c1cc(F)c(-n2nc3n(c2=O)CCC2(CC2)C3)cc1O[C@@H](C)C(F)(F)F` [Compound 34], for which the IC50 in series [3] (Homo sapiens, MV4-11, 72 h) is 10.2 nM; in series [4] it was < 50 nM.
`CCC[C@H](C)Oc1cc(-n2nc3n(c2=O)CCC2(CC2)C3)c(F)cc1C(=O)Nc1c(F)cccc1Cl` [Compound 42]: the IC50 in series [3] (setting [7]) was ≤ 50 nM; in series [4], < 50 nM.
`CCC[C@H](C)Oc1cc(-n2nc3n(c2=O)CC2(CC2)C3)c(F)cc1C(=O)Nc1c(F)cccc1Cl` [Compound 50]: the results for the IC50 in series [3] (setting [7]) and in series [4] were ≤ 50 nM and < 50 nM, respectively.
`Cc1cccc(NC(=O)c2cc(F)c(-n3nc4n(c3=O)CCC3(CC3)C4)cc2O[C@@H](C)C(F)(F)F)c1` [Compound 7]: the IC50 is ≤ 50 nM in series [3] (setting [7]) and < 50 nM in series [4].

As a reminder, the AUC(0-t) is exposure summed from dosing to a finite time, without extrapolation to infinity. Usually clearance stands for the rate of elimination divided by the concentration. A low value points to a low capacity for elimination. For orientation: half-life means how long it takes for the measured level to halve. A lower half-life goes with fast loss. As usually defined, the Cmax is the highest concentration seen after dosing. For orientation: Tmax means the time from dosing to the highest level. Broadly, the IC50 is the concentration that gives 50% inhibition.
